Biological target: T1, human GPR119 (Homo sapiens, UniProt Q8TDV5)
T1 construct: expression vector for human GPR119 cDNA (Acc. No. NP_848566); expressed in transfected cells
T1 sequence (Q8TDV5 1-335): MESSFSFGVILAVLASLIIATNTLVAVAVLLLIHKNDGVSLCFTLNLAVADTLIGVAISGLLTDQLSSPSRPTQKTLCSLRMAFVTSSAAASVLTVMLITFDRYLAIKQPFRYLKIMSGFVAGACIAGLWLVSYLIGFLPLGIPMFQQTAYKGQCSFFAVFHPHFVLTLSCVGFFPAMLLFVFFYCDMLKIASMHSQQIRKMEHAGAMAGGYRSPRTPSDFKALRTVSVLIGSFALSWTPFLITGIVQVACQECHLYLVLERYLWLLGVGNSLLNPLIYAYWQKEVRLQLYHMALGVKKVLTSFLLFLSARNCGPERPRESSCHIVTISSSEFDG
Assay: AlphaScreen cAMP assay in MIN6 cells stably transfected with human GPR119
Assay type: cell-based
Settings: Min-6/hGPR119 cells, AlphaScreen cAMP Assay Kit, 45 minutes incubation at room temperature
Protocol: The compounds of formula I according to the invention modulate the activity of the G-protein-coupled receptor GPR119. The effect of the compounds on the activation of GPR119 and on the stimulation of intracellular cAMP concentration is determined using the AlphaScreen cAMP Assay Kit (Cat. No. #6760625R) made by PerkinElmer.
MIN6 cells [Miyazaki J et al. Endocrinology. 1990 July; 127(1):126-32] are stably transfected with an expression vector for human GPR119 cDNA (Acc. No. NP_848566). Min-6/hGPR119 cells are cultured in DMEM, 10% FBS, 50 μM β-mercaptoethanol, 0.3 mg/mL Geniticin, 2 mM GlutaMAX at 37° C. 5% CO2. For the assay, the cells are seeded in Optiplates (white, 384-well, 160 W-barcoded, TC, sterile with lid, Cat. No. #6007688 (Perkin Elmer); 10000 cells/well; 50 μl). The plates covered with lids are then incubated for 24 hours at 37° C./5% CO2. After the medium is aspirated from the wells completely, 10 μl of the test compound are added, the compounds are diluted using stimulating buffer (140 mM NaCl, 3.6 mM KCl, 0.5 mM NaH2PO4, 0.5 mM MgSO4, 1.5 mM CaCl2, 10 mM Hepes, 5 mM NaHCO3; pH 7.4. 0.5 mM IBMX and 0.1% BSA, the final DMSO concentration is 1%). After 45 minutes incubation at room temperature (approx. 20° C.), the cAMP concentrations are determined using the AlphaScreen cAMP Assay Kit (Cat. No. #6760625R from PerkinElmer).

CC(C)c1noc(N2CCC(N(C(=O)c3ccc(-c4cnco4)cc3)C3CC3)CC2)n1 [Example 1, N-Cyclopropyl-N-[1-(3-isopropyl-[1,2,4]oxadiazol-5-yl)-piperidin-4-yl]-4-oxazol-5-yl-benzamide]
EC50: 0.015 µM

CC(C)Cc1noc(N2CCC(N(C(=O)c3ccc(-c4cnco4)cc3)C3CC3)CC2)n1 [Example 2, N-Cyclopropyl-N-[1-(3-isobutyl-[1,2,4]oxadiazol-5-yl)-piperidin-4-yl]-4-oxazol-5-yl-benzamide]
EC50: 0.015 µM

CC(C)(C)c1noc(N2CCC(N(C(=O)c3ccc(-c4cnco4)cc3)C3CC3)CC2)n1 [Example 3, N-[1-(3-tert-Butyl-[1,2,4]oxadiazol-5-yl)-piperidin-4-yl]-N-cyclopropyl-4-oxazol-5-yl-benzamide]
EC50: 0.019 µM

COCc1noc(N2CCC(N(C(=O)c3ccc(-c4cnco4)cc3)C3CC3)CC2)n1 [Example 4, N-Cyclopropyl-N-[1-(3-methoxymethyl-[1,2,4]oxadiazol-5-yl)-piperidin-4-yl]-4-oxazol-5-yl-benzamide]
EC50: 0.16 µM

O=C(c1ccc(-c2cnco2)cc1)N(C1CC1)C1CCN(c2nc(-c3ccc(I)cc3)no2)CC1 [Example 5, N-Cyclopropyl-N-{1-[3-(4-iodo-phenyl)-[1,2,4]oxadiazol-5-yl]-piperidin-4-yl}-4-oxazol-5-yl-benzamide]
EC50: 0.014 µM

O=C(c1ccc(-c2cnco2)cc1)N(C1CC1)C1CCN(c2nc(-c3ccccc3)no2)CC1 [Example 6, N-Cyclopropyl-4-oxazol-5-yl-N-[1-(3-phenyl-[1,2,4]oxadiazol-5-yl)-piperidin-4-yl]-benzamide]
EC50: 0.023 µM

O=C(c1ccc(-c2cnco2)cc1)N(C1CC1)C1CCN(c2nc(Cc3ccccc3)no2)CC1 [Example 7, N-[1-(3-Benzyl-[1,2,4]oxadiazol-5-yl)-piperidin-4-yl]-N-cyclopropyl-4-oxazol-5-yl-benzamide]
EC50: 0.069 µM

CCCc1noc(N2CCC(N(C(=O)c3ccc(-c4cnco4)cc3)C3CC3)CC2)n1 [Example 8, N-Cyclopropyl-4-oxazol-5-yl-N-[1-(3-propyl-[1,2,4]oxadiazol-5-yl)-piperidin-4-yl]-benzamide]
EC50: 0.036 µM

O=C(c1ccc(-c2cnco2)cc1)N(C1CC1)C1CCN(c2nc(-c3ccncc3)no2)CC1 [Example 9, N-Cyclopropyl-4-oxazol-5-yl-N-[1-(3-pyridin-4-yl-[1,2,4]oxadiazol-5-yl)-piperidin-4-yl]-benzamide]
EC50: 0.08 µM

O=C(c1ccc(-c2cnco2)cc1)N(C1CC1)C1CCN(c2nc(-c3ccc(F)cc3)no2)CC1 [Example 10, N-Cyclopropyl-N-{1-[3-(4-fluoro-phenyl)-[1,2,4]oxadiazol-5-yl]-piperidin-4-yl}-4-oxazol-5-yl-benzamide]
EC50: 0.013 µM

O=C(c1ccc(-c2cnco2)cc1)N(C1CC1)C1CCN(c2nc(-c3cccc(Br)c3)no2)CC1 [Example 11, N-{1-[3-(3-Bromo-phenyl)-[1,2,4]oxadiazol-5-yl]-piperidin-4-yl}-N-cyclopropyl-4-oxazol-5-yl-benzamide]
EC50: 0.097 µM

CCc1noc(N2CCC(N(C(=O)c3ccc(-c4cnco4)cc3)C3CC3)CC2)n1 [Example 12, N-Cyclopropyl-N-[1-(3-ethyl-[1,2,4]oxadiazol-5-yl)-piperidin-4-yl]-4-oxazol-5-yl-benzamide]
EC50: 0.051 µM

C=CCc1noc(N2CCC(N(C(=O)c3ccc(-c4cnco4)cc3)C3CC3)CC2)n1 [Example 13, N-[1-(3-Allyl-[1,2,4]oxadiazol-5-yl)-piperidin-4-yl]-N-cyclopropyl-4-oxazol-5-yl-benzamide]
EC50: 0.026 µM

O=C(c1ccc(-c2cnco2)cc1)N(C1CC1)C1CCN(c2nc(-c3ccsc3)no2)CC1 [Example 14, N-Cyclopropyl-4-oxazol-5-yl-N-[1-(3-thiophen-3-yl-[1,2,4]oxadiazol-5-yl)-piperidin-4-yl]-benzamide]
EC50: 0.027 µM

O=C(c1ccc(-c2cnco2)cc1)N(C1CC1)C1CCN(c2nc(-c3cccnc3)no2)CC1 [Example 15, N-Cyclopropyl-4-oxazol-5-yl-N-[1-(3-pyridin-3-yl-[1,2,4]oxadiazol-5-yl)-piperidin-4-yl]-benzamide]
EC50: 0.153 µM

Cc1nc(-c2noc(N3CCC(N(C(=O)c4ccc(-c5cnco5)cc4)C4CC4)CC3)n2)cs1 [Example 16, N-Cyclopropyl-N-{1-[3-(2-methyl-thiazol-4-yl)-[1,2,4]oxadiazol-5-yl]-piperidin-4-yl}-4-oxazol-5-yl-benzamide]
EC50: 0.206 µM

O=C(c1ccc(-c2ccncc2)cc1)N(C1CC1)C1CCN(c2nc(-c3ccccc3)no2)CC1 [Example 17, N-Cyclopropyl-N-[1-(3-phenyl-[1,2,4]oxadiazol-5-yl)-piperidin-4-yl]-4-pyridin-4-yl-benzamide]
EC50: 0.023 µM

O=C(c1ccc(-c2cnco2)cc1)N(C1CC1)C1CCN(c2nc(-c3ccccn3)no2)CC1 [Example 18, N-Cyclopropyl-4-oxazol-5-yl-N-[1-(3-pyridin-2-yl-[1,2,4]oxadiazol-5-yl)-piperidin-4-yl]-benzamide]
EC50: 0.275 µM

CCc1cnc(N2CCC(N(C(=O)c3ccc(-c4cnco4)cc3)C3CC3)CC2)nc1 [Example 19, N-Cyclopropyl-N-[1-(5-ethyl-pyrimidin-2-yl)-piperidin-4-yl]-4-oxazol-5-yl-benzamide]
EC50: 0.032 µM

O=C(c1ccc(-c2cnco2)cc1)N(C1CC1)C1CCN(c2ncccn2)CC1 [Example 20, N-Cyclopropyl-4-oxazol-5-yl-N-(1-pyrimidin-2-yl-piperidin-4-yl)-benzamide]
EC50: 0.393 µM

N#Cc1ccc(N2CCC(N(C(=O)c3ccc(-c4cnco4)cc3)C3CC3)CC2)nc1 [Example 21, N-[1-(5-Cyano-pyridin-2-yl)-piperidin-4-yl]-N-cyclopropyl-4-oxazol-5-yl-benzamide]
EC50: 0.143 µM

O=C(c1ccc(-c2cnco2)cc1)N(C1CC1)C1CCN(c2nc3ccccc3o2)CC1 [Example 22, N-(1-Benzooxazol-2-yl-piperidin-4-yl)-N-cyclopropyl-4-oxazol-5-yl-benzamide]
EC50: 0.06 µM

CCCc1cnc(N2CCC(N(C(=O)c3ccc(-c4cnco4)cc3)C3CC3)CC2)nc1 [Example 23, N-Cyclopropyl-4-oxazol-5-yl-N-[1-(5-propyl-pyrimidin-2-yl)-piperidin-4-yl]-benzamide]
EC50: 0.044 µM

O=C(c1ccc(-c2cnco2)cc1)N(C1CC1)C1CCN(c2ncc(-c3ccc(Cl)cc3)cn2)CC1 [Example 24, N-{1-[5-(4-Chloro-phenyl)-pyrimidin-2-yl]-piperidin-4-yl}-N-cyclopropyl-4-oxazol-5-yl-benzamide]
EC50: 0.232 µM

O=C(c1ccc(-c2cnco2)cc1)N(C1CC1)C1CCN(c2ncc(Br)cn2)CC1 [Example 25, N-[1-(5-Bromo-pyrimidin-2-yl)-piperidin-4-yl]-N-cyclopropyl-4-oxazol-5-yl-benzamide]
EC50: 0.017 µM

COc1cnc(N2CCC(N(C(=O)c3ccc(-c4cnco4)cc3)C3CC3)CC2)nc1 [Example 26, N-Cyclopropyl-N-[1-(5-methoxy-pyrimidin-2-yl)-piperidin-4-yl]-4-oxazol-5-yl-benzamide]
EC50: 0.047 µM

COc1ccc(-c2cnc(N3CCC(N(C(=O)c4ccc(-c5cnco5)cc4)C4CC4)CC3)nc2)cc1 [Example 27, N-Cyclopropyl-N-{1-[5-(4-methoxy-phenyl)-pyrimidin-2-yl]-piperidin-4-yl}-4-oxazol-5-yl-benzamide]
EC50: 0.071 µM

O=C(c1ccc(-c2cnco2)cc1)N(C1CC1)C1CCN(c2ccccn2)CC1 [Example 28, N-Cyclopropyl-4-oxazol-5-yl-N-(1-pyridin-2-yl-piperidin-4-yl)-benzamide]
EC50: 0.676 µM

O=C(c1ccc(-c2cnco2)cc1)N(C1CC1)C1CCN(c2ncc(F)cn2)CC1 [Example 29, N-Cyclopropyl-N-[1-(5-fluoro-pyrimidin-2-yl)-piperidin-4-yl]-4-oxazol-5-yl-benzamide]
EC50: 0.078 µM

O=C(c1ccc(-c2cnco2)cc1)N(C1CC1)C1CCN(c2ncc(Cl)cn2)CC1 [Example 30, N-[1-(5-Chloro-pyrimidin-2-yl)-piperidin-4-yl]-N-cyclopropyl-4-oxazol-5-yl-benzamide]
EC50: 0.019 µM

O=C(c1ccc(-c2cnco2)cc1)N(C1CC1)C1CCN(c2ccc(C(F)(F)F)cn2)CC1 [Example 31, N-Cyclopropyl-4-oxazol-5-yl-N-[1-(5-trifluoromethyl-pyridin-2-yl)-piperidin-4-yl]-benzamide]
EC50: 0.038 µM
